In patent US20240173440A1, “HIGH PURITY COPPER RADIOPHARMACEUTICAL COMPOSITIONS AND DIAGNOSTIC AND THERAPEUTIC USES THEREOF” (Nuclidium AG, priority 2022, published 2024):

Columns and labels:
LNCaP xenografts [1] = experiment: PET/CT imaging in LNCaP xenografted mice; assay type: in vivo; settings: LNCaP-xenografted nude mice
Protocol: (§1) Tumor xenografted mice were injected intravenously into the tail vein with the tested radiotracer. […] Mice were anesthetized with 1.5% isoflurane and dynamic PET scans were acquired during 1 hour upon injection of the radiotracer. The mice were euthanized by CO2 at 4 hours p.i., the bladder was mechanically emptied, and static PET scans were acquired for 30 min. PET images were acquired using the R-CUBE PET scanner system (MOLECUBES, Gent, Belgium) and they were decay corrected and reconstructed with the VivoQuant software version 4.0. The CT was imaged supine, headfirst, using the NanoSPECT/CT™ scanner (Bioscan Inc.). Topograms and helical CT scans of the whole mouse were first acquired using the following parameters: X-ray tube current: 177 μA, X-ray tube voltage 45 kVp, 90 seconds and 180 frames per rotation, pitch 1. CT images were reconstructed using CTReco (version r1.146), with a standard filtered back projection algorithm (exact cone beam) and post-filtered (RamLak, 100% frequency cut-off), resulting in a pixel size of 0.2 mm. Co-registered PET/CT images were visualized using maximum intensity projection (MIP) with InVivoScope (version 1.43, Bioscan Inc.). The results are presented in the Examples that follow.

[2] = Lipophilicity, log D by shake-flask method (1-octanol/PBS pH 7.4); assay type: physicochemical; settings: shake-flask, Table 17, mean ± SD
Protocol: The radiotracer (1 μM) was added to a 50:50 pre-saturated mixture of 1-octanol and phosphate buffered saline (PBSpH 7.4). The solution was vortexed for 30 min and then centrifuged at 3,000 rpm to achieve a phase separation. Aliquots from each phase were collected and measured in a gamma-counter. The distribution coefficient was calculated as the average of the logarithmic values of the ratio between the radioactivity in the organic and the PBS phase.
Table 17. Lipophilicity expressed as the log distribution coefficient D (log D(Octanol/PBS pH7.4)) of ^61Cu-radiotracers versus ^68Ga-radiotracers (reference radiotracers).
In a pre-lubricated Eppendorf tube, a pre-saturated mixture of 500 μL of 1-octanol and 500 μL of PBS pH 7.4 (phosphate-buffered saline) were added. An aliquot of […] in 10 μL of the radioligand was added to this mixture, shaken for 30 min, and then centrifuged at 3000 rcf for 10 min to achieve phase separation. Aliquots of 100 μL were removed from the 1-octanol and from the PBS phases, and the activity was measured in a […]. The partition coefficient was calculated as the average log ratio value of the radioactivity in the organic fraction and PBS fraction.

PSMA = PSMA (Homo sapiens (Human), UniProt Q04609); experiment: Specificity study: PET/CT in LNCaP xenografts after blocking with 2-PMPA, and free [61Cu]CuCl2; assay type: in vivo, mice; settings: PET/CT 1 hour p.i.
Protocol: The specificity of [^61Cu]Cu-NODAGA-PSMA-I&T and [^61Cu]Cu-DOTAGA-PSMA-I&T was assessed in LNCaP xenografted mice, firstly injected with 1.3 μmol (300 μg) of 2-Phosphonomethyl pentanedioic acid (2-PMPA) as the blocking agent, followed by the injection of the radiotracer e.g. [^61Cu]Cu-DOTAGA-PSMA-I&T (100 μL/[…]/4-8 MBq) or [^61Cu]Cu-NODAGA-PSMA-I&T (100 μL/[…]/4-8 MBq). One-hour post injection PET/CT images were acquired as described in Example 8. In addition, PET/CT image of xenografts after injection of [^61Cu]CuCl2 (100 μL/7 MBq) was acquired in order to assess the total body distribution of free (uncomplexed)^61Cu. The results are shown in FIG. 10, panels A and B. L=liver; K=kidneys; T=tumor; Bl=bladder; I=intestine.

LNCaP xenografts [3] = experiment: Quantitative biodistribution in LNCaP xenografted mice; assay type: in vivo; settings: LNCaP xenografts
Protocol: (§2) The mice were randomly distributed in groups and euthanized at 1 and at 4 hours post-injection. The organs of interest were collected, rinsed, blotted, weighed and counted in a gamma counter. The results are expressed as percentage of injected activity per gram (% IA/g), representing the mean±standard deviation of n=4-8 mice per group and they were obtained by extrapolation from counts of an aliquot taken from the injected solution as standard.
The biodistribution of the [^61Cu]Cu-NODAGA radiotracers was compared with the reference compounds used in patients under identical experimental conditions. The mice were randomly distributed in groups, injected with the radiotracer under investigation and euthanized at 1 and at 4 hours post-injection of the radiotracers under investigation. The organs of interest were collected, rinsed, blotted, weighed and counted in a gamma counter. The results are expressed as percentage of injected activity per gram (% IA/g), representing the mean±standard deviation of all mice per group and they were obtained by extrapolation from counts of an aliquot taken from the injected solution as standard.

LNCaP cells = experiment: In vitro cellular uptake (cell surface and internalized fractions) in LNCaP cells; assay type: cell-based; settings: for Cell surface fraction / Internalized fraction: specific uptake
Protocol: The cellular uptake was studied in vitro using intact cells seeded in 6-well plates overnight. On the day of the experiment, the cells were washed and incubated with each of the exemplified [^61Cu]Cu-radiotracer at different time points, either alone or in the presence of a blocking agent to distinguish between specific and non-specific uptake. At each investigated time point, the medium containing the unbound (free) radiotracer was removed, followed by two washing steps with ice-cold phosphate-buffered saline. The cells were then treated 2×5 min with ice-cold glycine solution (0.05 M, pH 2.8) to detach the cell surface-bound radiotracer (acid released). Afterwards, the cells containing the internalized radiotracer were detached with 1 M NaOH at 37° C. and collected for measurement. The amount of specific cell surface-bound and internalized radiotracer is expressed as percentage of the total applied activity, after subtracting the non-specific values.
2-(phosphonomethyl)-pentanedioic acid (2-PMPA, 10 μM) was used to determine non-specific binding (FIG. 14).
Cellular uptake and distribution between cell surface (cell membrane bound) and internalized fractions of ^61Cu-labeled PSMA-I&T constructs versus their ^68Ga counterparts (Table 19). The values are expressed as % of the applied activity and refer to the specific uptake calculated after subtracting the non-specific values (measured in the presence of 10 μM 2-PMPA) from the total values (specific=total−non specific).

in vivo = settings: iv, 20 umol, total radioactivity
Protocol: The tumors were allowed to grow for 1-3 weeks before commencement of the experiments.
as §2
The mice were randomly distributed in groups, injected with the radiotracer under investigation and euthanized at 1 and at 4 hours post-injection of the radiotracers under investigation. The organs of interest were collected, rinsed, blotted, weighed and counted in a gamma counter. The results are expressed as percentage of injected activity per gram (% IA/g), representing the mean±standard deviation of all mice per group and they were obtained by extrapolation from counts of an aliquot taken from the injected solution as standard.
The mice were randomly distributed in groups and euthanized at 4 hours post-injection. The organs of interest were collected, rinsed, blotted, weighed, and their respective radioactivity was counted in a gamma counter.

HEK-SST2 xenografts = experiment: PET/CT imaging in HEK-SST2 xenografted mice; assay type: in vivo; settings: 0-60 min and 240 min
Protocol: as §1

PSMA, sequence (Q04609 whole entry): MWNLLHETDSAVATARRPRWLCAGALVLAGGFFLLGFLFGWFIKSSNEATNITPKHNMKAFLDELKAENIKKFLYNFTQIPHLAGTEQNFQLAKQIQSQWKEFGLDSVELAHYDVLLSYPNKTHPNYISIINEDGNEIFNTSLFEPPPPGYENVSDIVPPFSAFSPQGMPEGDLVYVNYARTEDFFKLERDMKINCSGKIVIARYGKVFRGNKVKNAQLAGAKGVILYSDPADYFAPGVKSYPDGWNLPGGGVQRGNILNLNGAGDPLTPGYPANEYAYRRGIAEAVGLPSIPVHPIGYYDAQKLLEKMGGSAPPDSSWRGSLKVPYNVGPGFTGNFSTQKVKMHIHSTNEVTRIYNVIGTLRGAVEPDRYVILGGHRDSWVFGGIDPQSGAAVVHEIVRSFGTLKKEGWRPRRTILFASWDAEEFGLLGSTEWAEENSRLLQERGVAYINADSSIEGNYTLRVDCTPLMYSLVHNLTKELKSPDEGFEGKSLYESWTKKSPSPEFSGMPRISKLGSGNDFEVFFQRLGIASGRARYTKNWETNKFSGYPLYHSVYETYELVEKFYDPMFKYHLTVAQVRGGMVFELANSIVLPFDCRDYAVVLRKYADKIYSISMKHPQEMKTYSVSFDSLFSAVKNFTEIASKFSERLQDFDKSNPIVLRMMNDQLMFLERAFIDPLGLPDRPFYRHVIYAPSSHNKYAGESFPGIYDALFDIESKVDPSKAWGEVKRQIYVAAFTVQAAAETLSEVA

For `O=C([O-])CN1CCN(CC(=O)[O-])CCN(C(CCC(=O)N[C@H](Cc2ccc(O)c(I)c2)C(=O)N[C@H](Cc2ccccc2)C(=O)N[C@H](CCCCNC(=O)CCCCCCC(=O)NCCCC[C@H](NC(=O)N[C@@H](CCC(=O)O)C(=O)O)C(=O)O)C(=O)O)C(=O)O)CCN(CC(=O)O)CC1.[61Cu+2]` (stereo partly shown) [[^61Cu]Cu-DOTAGA-PSMA-I&T], the “distribution on PET/CT images” value (LNCaP xenografts [1]) was “lower tumor, but also lower kidney uptake”, the “log D(O/PBS pH 7.4)” value [2] was −2.69±0.44 and the “uptake in PSMA-positive tumors and kidneys in xenografts pre-injected with 2-PMPA” value (PSMA) was “significantly lower uptake”. The “Biodistribution Adrenal” value (LNCaP xenografts [3]; 1 hour p.i.) was 9.35 ± 1.50 % IA/g, the “Biodistribution Blood” value (LNCaP xenografts [3]; 1 hour p.i.) was 2.06 ± 0.24 % IA/g and the “Biodistribution Bone” value (LNCaP xenografts [3]; 1 hour p.i.) was 2.31 ± 0.36 % IA/g. The “Biodistribution Heart” value (LNCaP xenografts [3]; 1 hour p.i.) was 3.73 ± 0.32 % IA/g, the “Biodistribution Intestine” value (LNCaP xenografts [3]; 1 hour p.i.) was 8.95 ± 0.62 % IA/g and the “Biodistribution Kidneys” value (LNCaP xenografts [3]; 1 hour p.i.) was 57 ± 6 % IA/g. The “Biodistribution LNCaP-tumor” value (LNCaP xenografts [3]; 1 hour p.i.) was 6.06 ± 0.25 % IA/g, the “Biodistribution Liver” value (LNCaP xenografts [3]; 1 hour p.i.) was 19.3 ± 3.3 % IA/g and the “Biodistribution Lung” value (LNCaP xenografts [3]; 1 hour p.i.) was 6.35 ± 0.35 % IA/g. The “Biodistribution Muscle” value (LNCaP xenografts [3]; 1 hour p.i.) was 1.00 ± 0.05 % IA/g, the “Biodistribution Pancreas” value (LNCaP xenografts [3]; 1 hour p.i.) was 2.82 ± 0.67 % IA/g and the “Biodistribution Salivary glands” value (LNCaP xenografts [3]; 1 hour p.i.) was 5.60 ± 1.39 % IA/g. For the same compound, the “Biodistribution Spleen” value (LNCaP xenografts [3]; 1 hour p.i.) was 4.64 ± 1.35 % IA/g, the “Biodistribution Stomach” value (LNCaP xenografts [3]; 1 hour p.i.) was 7.77 ± 0.62 % IA/g and the “Ratio Tumor/Blood” value (LNCaP xenografts [3]; 1 hour p.i.) was 2.97 ± 0.23. For the same compound, the “Ratio Tumor/Kidney” value (LNCaP xenografts [3]; 1 hour p.i.) was 0.11 ± 0.01, the “Ratio Tumor/Liver” value (LNCaP xenografts [3]; 1 hour p.i.) was 0.32 ± 0.05 and the “Ratio Tumor/Muscles” value (LNCaP xenografts [3]; 1 hour p.i.) was 6.08 ± 0.22. The “Biodistribution Adrenal” value (LNCaP xenografts [3]; 4 hours p.i.) was 6.46 ± 2.38 % IA/g, the “Biodistribution Blood” value (LNCaP xenografts [3]; 4 hours p.i.) was 1.12 ± 0.24 % IA/g and the “Biodistribution Bone” value (LNCaP xenografts [3]; 4 hours p.i.) was 1.69 ± 0.25 % IA/g. For the same compound, the “Biodistribution Heart” value (LNCaP xenografts [3]; 4 hours p.i.) was 2.08 ± 0.33 % IA/g, the “Biodistribution Intestine” value (LNCaP xenografts [3]; 4 hours p.i.) was 7.74 ± 1.76 % IA/g and the “Biodistribution Kidneys” value (LNCaP xenografts [3]; 4 hours p.i.) was 22.1 ± 2.2 % IA/g. For the same compound, the “Biodistribution LNCaP-tumor” value (LNCaP xenografts [3]; 4 hours p.i.) was 4.88 ± 0.63 % IA/g, the “Biodistribution Liver” value (LNCaP xenografts [3]; 4 hours p.i.) was 13.9 ± 2.2 % IA/g and the “Biodistribution Lung” value (LNCaP xenografts [3]; 4 hours p.i.) was 4.67 ± 0.76 % IA/g. For the same compound, the “Biodistribution Muscle” value (LNCaP xenografts [3]; 4 hours p.i.) was 0.48 ± 0.08 % IA/g, the “Biodistribution Pancreas” value (LNCaP xenografts [3]; 4 hours p.i.) was 1.71 ± 0.23 % IA/g and the “Biodistribution Salivary glands” value (LNCaP xenografts [3]; 4 hours p.i.) was 2.31 ± 0.19 % IA/g. For the same compound, the “Biodistribution Spleen” value (LNCaP xenografts [3]; 4 hours p.i.) was 2.95 ± 0.73 % IA/g, the “Biodistribution Stomach” value (LNCaP xenografts [3]; 4 hours p.i.) was 7.10 ± 0.97 % IA/g and the “Ratio Tumor/Blood” value (LNCaP xenografts [3]; 4 hours p.i.) was 4.56 ± 1.49. The “Ratio Tumor/Kidney” value (LNCaP xenografts [3]; 4 hours p.i.) was 0.22 ± 0.04, the “Ratio Tumor/Liver” value (LNCaP xenografts [3]; 4 hours p.i.) was 0.35 ± 0.05 and the “Ratio Tumor/Muscles” value (LNCaP xenografts [3]; 4 hours p.i.) was 10.5 ± 2.8. The “accumulation in tumor and target-positive tissues” value (LNCaP xenografts [3]) was “high accumulation in PSMA-positive (LNCaP) tumor and PSMA-positive tissues”, the Cell surface fraction (LNCaP cells; 5 min) was 3.7 ± 0.5 % of the applied activity and the Internalized fraction (LNCaP cells; 5 min) was 0.7 ± 0.1 % of the applied activity. For the same compound, the Cell surface fraction (LNCaP cells; 15 min) was 8.1 ± 0.7 % of the applied activity, the Internalized fraction (LNCaP cells; 15 min) was 2.8 ± 0.2 % of the applied activity and the Cell surface fraction (LNCaP cells; 30 min) was 11.6 ± 1.0 % of the applied activity. For the same compound, the Internalized fraction (LNCaP cells; 30 min) was 6.2 ± 0.5 % of the applied activity, the Cell surface fraction (LNCaP cells; 60 min) was 13.4 ± 0.8 % of the applied activity and the Internalized fraction (LNCaP cells; 60 min) was 13.3 ± 0.5 % of the applied activity. For the same compound, the Cell surface fraction (LNCaP cells; 120 min) was 14.7 ± 1.0 % of the applied activity, the Internalized fraction (LNCaP cells; 120 min) was 21.3 ± 0.9 % of the applied activity and the PSMA-mediated cellular uptake (LNCaP cells; after 2h at 37° C.) was “approx. 35%”. For the same compound, the “part of the cellular uptake being internalized” value (LNCaP cells; after 2h at 37° C.) was 50-60%.

For `C[C@@H](O)[C@@H]1NC(=O)[C@H](CCCCN)NC(=O)[C@@H](Cc2ccc(NC(N)=O)cc2)NC(=O)[C@H](Cc2ccc(O)cc2)NC(=O)[C@H](NC(=O)[C@H](Cc2ccc(Cl)cc2)NC(=O)CC[C@H](C(=O)O)N2CCN(CC(=O)O)CCN(CC(=O)O)CC2)CSSC[C@@H](C(=O)N[C@H](Cc2ccc(O)cc2)C(N)=O)NC1=O` [[^61Cu]Cu-(R)-NODAGA-LM3, metal not drawn], the tissue uptake at 4 h (in vivo; athymic nude Foxn1+Foxn1+, mouse, Biodistribution Adrenal) was 0.61 ± 0.18 %ID/g, the tissue uptake at 4 h (in vivo; athymic nude Foxn1+Foxn1+, mouse, Biodistribution Blood) was 0.1 ± 0.01 %ID/g and the tissue uptake at 4 h (in vivo; athymic nude Foxn1+Foxn1+, mouse, Biodistribution Heart) was 0.17 ± 0.02 %ID/g. The tissue uptake at 4 h (in vivo; athymic nude Foxn1+Foxn1+, mouse, Biodistribution Intestine) was 0.58 ± 0.13 %ID/g, the tissue uptake at 4 h (in vivo; athymic nude Foxn1+Foxn1+, mouse, Biodistribution Liver) was 0.73 ± 0.06 %ID/g and the tissue uptake at 4 h (in vivo; athymic nude Foxn1+Foxn1+, mouse, Biodistribution Lung) was 0.42 ± 0.05 %ID/g. The tissue uptake at 4 h (in vivo; athymic nude Foxn1+Foxn1+, mouse, Biodistribution Pancreas) was 0.44 ± 0.24 %ID/g, the tissue uptake at 4 h (in vivo; athymic nude Foxn1+Foxn1+, mouse, Biodistribution Spleen) was 0.17 ± 0.02 %ID/g and the tissue uptake at 4 h (in vivo; athymic nude Foxn1+Foxn1+, mouse, Biodistribution Stomach) was 0.78 ± 0.14 %ID/g. For the same compound, the tissue uptake at 4 h (in vivo; athymic nude Foxn1, mouse, Biodistribution Bone) was 0.42 ± 0.12 %ID/g, the tissue uptake at 4 h (in vivo; athymic nude Foxn1, mouse, Biodistribution Kidneys) was 3.87 ± 0.51 %ID/g and the tissue uptake at 4 h (in vivo; athymic nude Foxn1, mouse, Biodistribution Muscle) was 0.1 ± 0.02 %ID/g. For the same compound, the tissue uptake at 4 h (in vivo; athymic nude Foxn1, mouse, Biodistribution Pituitary) was 3.64 ± 0.31 %ID/g, the tissue uptake at 4 h (in vivo; athymic nude Foxn1, mouse, Biodistribution SSTR2-tumor) was 19 ± 2.11 %ID/g and the “distribution pattern on PET/CT” value (HEK-SST2 xenografts) was “same distribution pattern”.
